Measurements taken from patent publication US11083725B2 (priority 2014, dated 2021).

Tested on: NHBE cells
Assay: Biolog metabolic array: substrate use by NHBE cells with or without CA09 infection
Assay type: cell-based, human
Conditions: for Substrate use, 590 nm absorbance normalized to zero hour, 0 hr: Biolog PMM2, 0 hr; for Substrate use, 590 nm absorbance normalized to zero hour, 1 hr: Biolog PMM2, 1 hr; for Substrate use, 590 nm absorbance normalized to zero hour, 5 hr: Biolog PMM2, 5 hr; for Substrate use, 590 nm absorbance normalized to zero hour, 7 hr: Biolog PMM2, 7 hr
[1] = Control (uninfected) NHBE cells
[2] = Virus (CA09-infected, MOI 1) NHBE cells
[3] = Virus: CA09-infected NHBE cells, MOI 1, Biolog PMM2
[4] = Virus (CA09, MOI 1) infected NHBE cells

Row | Structure (SMILES) | 590 nm absorbance normalized to zero hour (substrate use), 0 hr [1] | 590 nm absorbance normalized to zero hour (substrate use), 1 hr [1] | 590 nm absorbance normalized to zero hour (substrate use), 2 hr [1] | 590 nm absorbance normalized to zero hour (substrate use), 3 hr [1] | 590 nm absorbance normalized to zero hour (substrate use), 4 hr [1] | 590 nm absorbance normalized to zero hour (substrate use), 6 hr [1] | 590 nm absorbance normalized to zero hour (substrate use), 8 hr [1] | 590 nm absorbance normalized to zero hour (substrate use), 9 hr [1] | 590 nm absorbance normalized to zero hour (substrate use), 10 hr [1] | 590 nm absorbance normalized to zero hour (substrate use), 11 hr [1] | Substrate use, 590 nm absorbance normalized to zero hour, 0 hr [1] | Substrate use, 590 nm absorbance normalized to zero hour, 1 hr [1] | Substrate use, 590 nm absorbance normalized to zero hour, 5 hr [1] | Substrate use, 590 nm absorbance normalized to zero hour, 7 hr [1] | 590 nm absorbance normalized to zero hour (substrate use), 0 hr [2] | 590 nm absorbance normalized to zero hour (substrate use), 1 hr [2] | 590 nm absorbance normalized to zero hour (substrate use), 2 hr [2] | 590 nm absorbance normalized to zero hour (substrate use), 3 hr [2] | 590 nm absorbance normalized to zero hour (substrate use), 4 hr [2] | 590 nm absorbance normalized to zero hour (substrate use), 6 hr [2] | other results
1 | O=C(O)C[C@H](O)C(=O)O [L-Malic Acid] | 1.00 | 1.11 | 1.27 | 1.37 | 1.35 | 0.72 | 1.35 | 1.39 | 1.37 | 1.43 | 1.00 | 1.11 | 1.41 | 1.33 | 1.00 | 1.48 | 1.19 | 1.27 | 3.32 | 1.42 | 590 nm absorbance normalized to zero hour (substrate use), 5 hr [2]: 1.59; 590 nm absorbance normalized to zero hour (substrate use), 7 hr [2]: 2.93; 590 nm absorbance normalized to zero hour (substrate use), 8 hr [2]: 3.48; 590 nm absorbance normalized to zero hour (substrate use), 9 hr [2]: 1.72; 590 nm absorbance normalized to zero hour (substrate use), 10 hr [2]: 2.20; 590 nm absorbance normalized to zero hour (substrate use), 11 hr [2]: 2.05; 590 nm absorbance normalized to zero hour (substrate use), 0 hr [3]: 1.00; 590 nm absorbance normalized to zero hour (substrate use), 1 hr [3]: 1.48; 590 nm absorbance normalized to zero hour (substrate use), 2 hr [3]: 1.19; 590 nm absorbance normalized to zero hour (substrate use), 3 hr [3]: 1.27; 590 nm absorbance normalized to zero hour (substrate use), 4 hr [3]: 3.32; 590 nm absorbance normalized to zero hour (substrate use), 5 hr [3]: 1.59; 590 nm absorbance normalized to zero hour (substrate use), 6 hr [3]: 1.42; 590 nm absorbance normalized to zero hour (substrate use), 7 hr [3]: 2.93; 590 nm absorbance normalized to zero hour (substrate use), 8 hr [3]: 3.48; 590 nm absorbance normalized to zero hour (substrate use), 9 hr [3]: 1.72; 590 nm absorbance normalized to zero hour (substrate use), 10 hr [3]: 2.20; 590 nm absorbance normalized to zero hour (substrate use), 11 hr [3]: 2.05
2 | CO[C@@H]1O[C@H](CO)[C@H](O)[C@H](O)[C@H]1O [b-Methyl-D-Galactoside] | 1.00 | 0.52 | 0.68 | 0.78 | 0.87 | 1.28 | 1.24 | 1.36 | 1.54 | 1.61 | 1.00 | 0.52 | 1.05 | 1.17 | 1.00 | 0.74 | 0.95 | 1.11 | 1.18 | 1.45 | 590 nm absorbance normalized to zero hour (substrate use), 5 hr [2]: 1.36; 590 nm absorbance normalized to zero hour (substrate use), 7 hr [2]: 1.52; 590 nm absorbance normalized to zero hour (substrate use), 8 hr [2]: 1.60; 590 nm absorbance normalized to zero hour (substrate use), 9 hr [2]: 1.76; 590 nm absorbance normalized to zero hour (substrate use), 10 hr [2]: 1.81; 590 nm absorbance normalized to zero hour (substrate use), 11 hr [2]: 1.96; 590 nm absorbance normalized to zero hour (substrate use), 0 hr [3]: 1.00; 590 nm absorbance normalized to zero hour (substrate use), 1 hr [3]: 0.74; 590 nm absorbance normalized to zero hour (substrate use), 2 hr [3]: 0.95; 590 nm absorbance normalized to zero hour (substrate use), 3 hr [3]: 1.11; 590 nm absorbance normalized to zero hour (substrate use), 4 hr [3]: 1.18; 590 nm absorbance normalized to zero hour (substrate use), 5 hr [3]: 1.36; 590 nm absorbance normalized to zero hour (substrate use), 6 hr [3]: 1.45; 590 nm absorbance normalized to zero hour (substrate use), 7 hr [3]: 1.52; 590 nm absorbance normalized to zero hour (substrate use), 8 hr [3]: 1.60; 590 nm absorbance normalized to zero hour (substrate use), 9 hr [3]: 1.76; 590 nm absorbance normalized to zero hour (substrate use), 10 hr [3]: 1.81; 590 nm absorbance normalized to zero hour (substrate use), 11 hr [3]: 1.96
3 | CO[C@@H]1O[C@H](CO)[C@@H](O)[C@H](O)[C@H]1O [b-Methyl-D-Glucoside] | 1.00 | 1.32 | 1.80 | 1.84 | 2.02 | 1.04 | 3.05 | 3.33 | 3.70 | 4.24 | 1.00 | 1.32 | 2.32 | 2.85 | 1.00 | 2.00 | 2.80 | 3.24 | 3.45 | 4.32 | Substrate use, 590 nm absorbance normalized to zero hour, 0 hr [4]: 1.00; Substrate use, 590 nm absorbance normalized to zero hour, 1 hr [4]: 2.00; Substrate use, 590 nm absorbance normalized to zero hour, 5 hr [4]: 3.99; Substrate use, 590 nm absorbance normalized to zero hour, 7 hr [4]: 4.57; 590 nm absorbance normalized to zero hour (substrate use), 8 hr [2]: 4.86; 590 nm absorbance normalized to zero hour (substrate use), 9 hr [2]: 5.41; 590 nm absorbance normalized to zero hour (substrate use), 10 hr [2]: 5.67; 590 nm absorbance normalized to zero hour (substrate use), 11 hr [2]: 6.22
